From patent US7371766B2, “Curcumin analogs with anti-tumor and anti-angiogenic properties” (Emory University, priority 1999, dated 2008)

What was measured:
[1] = system: CCRF-CEM; assay: cells; settings: Homo sapiens, 48 h; for GI50: read-out: Median Growth Inhibitory Concentration (GI50)
[2] = system: MOLT-4; assay: cells; settings: Homo sapiens, MOLT-4, 48 h; for GI50: read-out: Median Growth Inhibitory Concentration (GI50); for CC50: read-out: Median Lethal Concentration (LC50)
[3] = system: HOP-62; assay: cells; settings: Homo sapiens, HOP-62, 48 h; for GI50: read-out: Median Growth Inhibitory Concentration (GI50)
[4] = system: NCI-H226; assay: cells; settings: Homo sapiens, NCI-H226, 48 h; for GI50: read-out: Median Growth Inhibitory Concentration (GI50); for CC50: read-out: Median Lethal Concentration (LC50)
[5] = system: NCI-H460; assay: cells; settings: Homo sapiens, NCI-H460, 48 h; for GI50: read-out: Median Growth Inhibitory Concentration (GI50); for CC50: read-out: Median Lethal Concentration (LC50)
[6] = system: NCI-H522; assay: cells; settings: Homo sapiens, NCI-H522, 48 h; for GI50: read-out: Median Growth Inhibitory Concentration (GI50); for CC50: read-out: Median Lethal Concentration (LC50)
[7] = system: HCC-2998; assay: cells; settings: Homo sapiens, HCC 2998, 48 h; for GI50: read-out: Median Growth Inhibitory Concentration (GI50); for CC50: read-out: Median Lethal Concentration (LC50)
[8] = system: HCT-15; assay: cells; settings: Homo sapiens, HCT-15, 48 h; for GI50: read-out: Median Growth Inhibitory Concentration (GI50); for CC50: read-out: Median Lethal Concentration (LC50)
[9] = system: KM12; assay: cells; settings: Homo sapiens, KM12, 48 h; for GI50: read-out: Median Growth Inhibitory Concentration (GI50); for CC50: read-out: Median Lethal Concentration (LC50)
[10] = system: SF-268; assay: cells; settings: Homo sapiens, SF-268, 48 h; for GI50: read-out: Median Growth Inhibitory Concentration (GI50); for CC50: read-out: Median Lethal Concentration (LC50)
[11] = system: SNB-19; assay: cells; settings: Homo sapiens, SNB-19, 48 h; for GI50: read-out: Median Growth Inhibitory Concentration (GI50); for CC50: read-out: Median Lethal Concentration (LC50)
[12] = system: SNB-75; assay: cells; settings: Homo sapiens, SNB-75, 48 h; for GI50: read-out: Median Growth Inhibitory Concentration (GI50); for CC50: read-out: Median Lethal Concentration (LC50)
[13] = system: LOX IMVI; assay: cells; settings: Homo sapiens, 48 h; for GI50: read-out: Median Growth Inhibitory Concentration (GI50)
[14] = system: SK-MEL-28; assay: cells; settings: Homo sapiens, SK-MEL-28, 48 h; for GI50: read-out: Median Growth Inhibitory Concentration (GI50); for CC50: read-out: Median Lethal Concentration (LC50)
[15] = system: UACC-257; assay: cells; settings: Homo sapiens, UACC-257, 48 h; for GI50: read-out: Median Growth Inhibitory Concentration (GI50); for CC50: read-out: Median Lethal Concentration (LC50)
[16] = system: OVCAR-3; assay: cells; settings: Homo sapiens, OVCAR-3, 48 h; for GI50: read-out: Median Growth Inhibitory Concentration (GI50); for CC50: read-out: Median Lethal Concentration (LC50)
[17] = system: 786-0; assay: cells; settings: Homo sapiens, 786-0, 48 h; for GI50: read-out: Median Growth Inhibitory Concentration (GI50); for CC50: read-out: Median Lethal Concentration (LC50)
[18] = system: ACHN; assay: cells; settings: Homo sapiens, 48 h; for GI50: read-out: Median Growth Inhibitory Concentration (GI50); for CC50: read-out: Median Lethal Concentration (LC50)
[19] = system: CAKI-1; assay: cells; settings: Homo sapiens, CAKI-1, 48 h; for GI50: read-out: Median Growth Inhibitory Concentration (GI50); for CC50: read-out: Median Lethal Concentration (LC50)
[20] = system: RXF 393; assay: cells; settings: Homo sapiens, RXF 393, 48 h; for GI50: read-out: Median Growth Inhibitory Concentration (GI50); for CC50: read-out: Median Lethal Concentration (LC50)
[21] = system: SN12C; assay: cells; settings: Homo sapiens, 48 h; for GI50: read-out: Median Growth Inhibitory Concentration (GI50); for CC50: read-out: Median Lethal Concentration (LC50)
[22] = system: UO-31; assay: cells; settings: Homo sapiens, UO-31, 48 h; for GI50: read-out: Median Growth Inhibitory Concentration (GI50); for CC50: read-out: Median Lethal Concentration (LC50)
[23] = system: PC-3; assay: cells; settings: Homo sapiens, PC-3, 48 h; for GI50: read-out: Median Growth Inhibitory Concentration (GI50); for CC50: read-out: Median Lethal Concentration (LC50)
[24] = system: MCF-7; assay: cells; settings: Homo sapiens, MCF7, 48 h; for GI50: read-out: Median Growth Inhibitory Concentration (GI50); for CC50: read-out: Median Lethal Concentration (LC50)
[25] = system: NCI/ADR-RES; assay: cells; settings: Homo sapiens, 48 h; for GI50: read-out: Median Growth Inhibitory Concentration (GI50); for CC50: read-out: Median Lethal Concentration (LC50)
[26] = system: MDA-MB-231; assay: cells; settings: Homo sapiens, MDA-MB-231, 48 h; for GI50: read-out: Median Growth Inhibitory Concentration (GI50); for CC50: read-out: Median Lethal Concentration (LC50)
[27] = system: T-47D; assay: cells; settings: Homo sapiens, T47D, 48 h; for GI50: read-out: Median Growth Inhibitory Concentration (GI50); for CC50: read-out: Median Lethal Concentration (LC50)
[28] = system: Vascular Endothelial Growth Factor (VEGF) production by human melanoma cell line RPMI-7951; assay: VEGF ELISA, RPMI-7951; settings: Homo sapiens, RPMI-7951, 72 h, read-out: VEGF
[29] = system: Sixty human tumor cell lines; settings: NCI Anti-Tumor Screen, several cell types
[30] = read-out: Median Lethal Concentration (LC50)

CC1(/C=C/c2ccccc2O)C=Cc2ccccc2O1 (stereo not drawn) [EF7]
GI50 [1]: 12.5 µM | CC50 [1, 30]: 79.5 µM | GI50 [2]: 7.7 µM | CC50 [2]: 64.7 µM | GI50 [3]: 16.3 µM | CC50 [3, 30]: 63.1 µM | GI50 [4]: 18.7 µM | CC50 [4]: 78.8 µM | GI50 [5]: 17.6 µM | CC50 [5]: 66.8 µM | GI50 [6]: 16.2 µM | CC50 [6]: > 100 µM | GI50 [7]: 18.4 µM | CC50 [7]: 56.8 µM | GI50 [8]: 17.2 µM | CC50 [8]: 68.9 µM | GI50 [9]: 17.1 µM | CC50 [9]: 55.5 µM | GI50 [10]: 19.8 µM | CC50 [10]: > 100 µM | GI50 [11]: 17.5 µM | CC50 [11]: 55.9 µM | GI50 [12]: 11.8 µM | CC50 [12]: 49 µM | GI50 [13]: 17.2 µM | CC50 [13, 30]: 73.4 µM | GI50 [14]: 17.4 µM | CC50 [14]: 62.9 µM | GI50 [15]: 16.9 µM | CC50 [15]: 55.2 µM | GI50 [16]: 15.6 µM | CC50 [16]: 54.5 µM | GI50 [17]: 16.4 µM | CC50 [17]: 54.8 µM | GI50 [18]: 15.7 µM | CC50 [18]: 54 µM | GI50 [19]: 14.3 µM | CC50 [19]: 52.3 µM | GI50 [20]: 11 µM | CC50 [20]: 49.2 µM | GI50 [21]: 15.2 µM | CC50 [21]: 54.4 µM | GI50 [22]: 13.5 µM | CC50 [22]: 51.3 µM | GI50 [23]: 17.2 µM | CC50 [23]: 55.6 µM | GI50 [24]: 18 µM | CC50 [24]: 65.9 µM | GI50 [25]: 19.3 µM | CC50 [25]: > 100 µM | GI50 [26]: 19.8 µM | CC50 [26]: 74.6 µM | GI50 [27]: 7.7 µM | CC50 [27]: 55.4 µM | activity at 20 µM [28]: 27%

CC(=O)O.O=C1C(=Cc2ccccc2F)CNCC1=Cc1ccccc1F [EF24, 3,5-Bis-(2-fluorobenzylidene)-piperidin-4-one-acetate]
GI50 compared with CISPLATIN, in words [29]: lower GI50 than the chemotherapeutic agent CISPLATIN for several cell types | LC50 compared with CISPLATIN, in words [29]: lower LC50 than the chemotherapeutic agent CISPLATIN for several cell types | GI50 [1]: 0.2 µM | GI50 [2]: 0.5 µM | CC50 [2]: 66.2 µM | GI50 [3]: 0.7 µM | GI50 [4]: 3.6 µM | CC50 [4]: 48.3 µM | GI50 [5]: 81 µM | CC50 [5]: 50.1 µM | GI50 [6]: 0.9 µM | CC50 [6]: 22.9 µM | GI50 [7]: 1.1 µM | CC50 [7]: 5 µM | GI50 [8]: 0.2 µM | CC50 [8]: 13.6 µM | GI50 [9]: 0.2 µM | CC50 [9]: 3.4 µM | GI50 [10]: 0.6 µM | CC50 [10]: 55.6 µM | GI50 [11]: 0.7 µM | CC50 [11]: 19.3 µM | GI50 [12]: 2 µM | CC50 [12]: 8.8 µM | GI50 [13]: 0.2 µM | GI50 [14]: 2.1 µM | CC50 [14]: 33.1 µM | GI50 [15]: 1.8 µM | CC50 [15]: 13.5 µM | GI50 [16]: 1.1 µM | CC50 [16]: 16.2 µM | GI50 [17]: 0.2 µM | CC50 [17]: 1.6 µM | GI50 [18]: 1.1 µM | CC50 [18]: 5.6 µM | GI50 [19]: 0.8 µM | CC50 [19]: 27.2 µM | GI50 [20]: 0.6 µM | CC50 [20]: 3.6 µM | GI50 [21]: 1 µM | CC50 [21]: 5.4 µM | GI50 [22]: 0.6 µM | CC50 [22]: 4.5 µM | GI50 [23]: 0.3 µM | CC50 [23]: 7.2 µM | GI50 [24]: 0.2 µM | CC50 [24]: 5 µM | GI50 [25]: 0.9 µM | CC50 [25]: 60.6 µM | GI50 [26]: 1.3 µM | CC50 [26]: 9.1 µM | GI50 [27]: 1.3 µM | CC50 [27]: 51.9 µM
